From DBAASP come the findings set out here.

The structures appear in SMILES notation. Converted amounts (≈) assume the structure as drawn. “And” between values parts separate entries of the source, which are not always exact repeats. Equal entries are not always repeated. Where only a bound is given, the exact number is not on record here.

Test systems include Staphylococcus aureus; Acinetobacter baumannii; Bacillus subtilis 168; Escherichia coli K-12; Escherichia coli; Klebsiella pneumoniae; Listeria monocytogenes; Staphylococcus aureus 75; Cupriavidus necator H16; Escherichia coli JM109; Aspergillus fumigatus; Escherichia coli D22; Micrococcus luteus A270.
Assay in all cases: ≥ marks a high value that may be exact or a test limit, other limits are often not marked, values filed in µg/mL are converted to µM
The subject of assay [1] is Candida albicans ATCC 36232.
Assay [2] has as its system Escherichia coli ATCC 2592.
Assay [3] has as its system Micrococcus luteus ATCC 9341.
The subject of assay [4] is Proteus vulgaris ATCC 6380.
Assay [5] relates to Pseudomonas aeruginosa ATCC 9027.
The test system of assay [6] is Staphylococcus aureus ATCC 6538.
Assay [7] deals with Escherichia coli BNCC 133264.
Assay [8] deals with Pseudomonas aeruginosa BNCC 125486.
Assay [9] relates to Pseudomonas aeruginosa PAO1.
Assay [10] deals with Staphylococcus aureus BNCC 186335.
Assay [11] concerns Staphylococcus aureus USA 300.
In assay [12] the test system is Acinetobacter baumannii 97830.
The subject of assay [13] is Acinetobacter baumannii 9840.
In assay [14] the test system is Bacillus subtilis ATCC 23857.
Assay [15] has as its system Candida albicans NCPF 1467.
The test system of assay [16] is Escherichia coli ATCC 25922.
Assay [17] has as its system Escherichia coli NCTC 10418.
Assay [18] concerns Pseudomonas aeruginosa 1570.
Assay [19] relates to Pseudomonas aeruginosa 5167.
Assay [20] deals with Pseudomonas aeruginosa ATCC 15692.
Assay [21] has as its system Salmonella enterica subsp. enterica serovar Typhimurium ATCC 14028.
Assay [22] concerns Staphylococcus aureus 113.
The test system of assay [23] is Staphylococcus aureus 725.
Assay [24] has as its system Staphylococcus aureus 794.
Assay [25] relates to Staphylococcus aureus 936.
For assay [26], the system named is Staphylococcus aureus ATCC 25923.
Assay [27] relates to Staphylococcus aureus ATCC 33591.
In assay [28] the test system is Staphylococcus aureus NCTC 10788.
Assay [29] has as its system Staphylococcus epidermidis ATCC 12228.
The test system of assay [30] is Escherichia coli BL21(DE3).
The subject of assay [31] is Pseudomonas putida GPp104.
Assay [32] has as its system Neurospora crassa CBS 327-54.
The subject of assay [33] is Pseudomonas aeruginosa PTCC 2834.
Assay [34] has as its system Staphylococcus aureus PTCC 1442.

As to `CC[C@H](C)[C@H](NC(=O)[C@H](CCCCN)NC(=O)[C@@H]1CCCN1C(=O)[C@H](CC(C)C)NC(=O)[C@H](Cc1ccccc1)NC(=O)[C@H](CC(N)=O)NC(=O)[C@H](C)N)C(=O)N[C@@H](Cc1ccccc1)C(=O)N[C@@H](CS)C(=O)N[C@@H](CCCCN)C(=O)N[C@H](C(=O)N[C@H](C(=O)N[C@@H](CCCN=C(N)N)C(=O)N[C@@H](CCCCN)C(=O)N[C@@H](CS)C(N)=O)[C@@H](C)O)[C@@H](C)CC` [ANFLPKIFCKITRKC], the minimal inhibitory concentration (MIC) in [1] is 28.1 µM (≈ 50 µg/mL); in assay [2] it was 28.1 µM (≈ 50 µg/mL); in assay [3] it was 14 µM (≈ 25 µg/mL); in assay [4], at least 56.1 µM; in assay [5], 28.1 µM (≈ 50 µg/mL); in [6], 56.1 µM (≈ 99.9 µg/mL). In the assay with Staphylococcus aureus, this compound yielded a minimum inhibitory concentration (MIC) above 56.1 µM.
For the compound `CC[C@H](C)[C@H](NC(=O)[C@H](CCCCN)NC(=O)[C@@H]1CCCN1C(=O)[C@@H](NC(=O)[C@H](CC(C)C)NC(=O)[C@H](CCCCN)NC(=O)[C@H](CC(C)C)NC(=O)[C@@H](NC(=O)[C@H](CO)NC(=O)CNC(=O)[C@H](Cc1ccccc1)NC(=O)[C@@H](N)Cc1ccccc1)C(C)C)[C@@H](C)CC)C(=O)N[C@@H](CC(C)C)C(N)=O` [FFGSVLKLIPKIL], the MIC is at least 43.4 µM against Acinetobacter baumannii; 6.25 µM (≈ 9.21 µg/mL) in the assay with Bacillus subtilis 168; at least 43.4 µM in [7]; 25 µM (≈ 36.8 µg/mL) in the assay on Escherichia coli K-12; 21.7 µM (≈ 32 µg/mL) in the assay with Escherichia coli; above 43.4 µM in the assay with Klebsiella pneumoniae. The MIC in the assay on Listeria monocytogenes was 1.36 µM (≈ 2 µg/mL); in [8] it was at least 86.8 µM; in assay [9], above 100 µM; in assay [10] it was 1.36 µM (≈ 2 µg/mL); in assay [11], 3.12 µM (≈ 4.6 µg/mL); against Staphylococcus aureus, 1.36 µM (≈ 2 µg/mL).
For the compound `CC(C)C[C@H](NC(=O)[C@H](CC(C)C)NC(=O)[C@H](CCCCN)NC(=O)[C@H](CCCCN)NC(=O)[C@H](CC(C)C)NC(=O)[C@H](CC(C)C)NC(=O)[C@H](CCCCN)NC(=O)[C@H](CC(C)C)NC(=O)[C@@H](N)Cc1ccccc1)C(N)=O` [FLKLLKKLL], the minimum inhibitory concentration (MIC) amounted to 7.17 µM (≈ 7.99 µg/mL) in [12]; 10.1 µM (≈ 11.3 µg/mL) in [13]; 10.1 µM (≈ 11.3 µg/mL) with Acinetobacter baumannii; 3.59 µM (≈ 4 µg/mL) in assay [14]; 7 µM (≈ 7.8 µg/mL) in [15]; 28.7 µM (≈ 32 µg/mL) in assay [16]. The MIC in [17] came to 14 µM (≈ 15.6 µg/mL); in assay [18], 7.17 µM (≈ 7.99 µg/mL); in assay [19], 14.3 µM (≈ 16 µg/mL); in [20] it was 7.17 µM (≈ 7.99 µg/mL); in assay [21], 14.3 µM (≈ 16 µg/mL); in assay [22], 7.17 µM (≈ 7.99 µg/mL). For the same compound, the MIC is 7.17 µM (≈ 7.99 µg/mL) in assay [23]; 7.17 µM (≈ 7.99 µg/mL) against Staphylococcus aureus 75; 14.3 µM (≈ 16 µg/mL) in assay [24]; 7.17 µM (≈ 7.99 µg/mL) in [25]; 14.3 µM (≈ 16 µg/mL) in assay [26]; 7.17 µM and 14.3 µM in assay [27]. Moreover, the MIC in assay [28] came out at 7 µM (≈ 7.8 µg/mL); in assay [29], 14.3 µM (≈ 16 µg/mL).
For `CC[C@H](C)[C@H](NC(=O)[C@H](Cc1ccc(O)cc1)NC(=O)[C@@H](NC(=O)[C@@H]1CCCN1C(=O)[C@H](CCCN=C(N)N)NC(=O)[C@@H]1CCCN1C(=O)[C@H](CC(N)=O)NC(=O)[C@@H](N)CCCN=C(N)N)C(C)C)C(=O)N1CCC[C@H]1C(=O)N[C@@H](CCC(N)=O)C(=O)N1CCC[C@H]1C(=O)N[C@@H](CCCN=C(N)N)C(=O)N1CCC[C@H]1C(=O)N1CCC[C@H]1C(=O)N[C@@H](Cc1cnc[nH]1)C(=O)N1CCC[C@H]1C(=O)N[C@@H](CCCN=C(N)N)C(=O)N[C@@H](CC(C)C)C(=O)O` [RNPRPVYIPQPRPPHPRL], the MIC against Cupriavidus necator H16 was determined as 25 µM (≈ 54.8 µg/mL); in assay [30] it was 0.313 µM (≈ 0.686 µg/mL); in the assay on Escherichia coli JM109, 6.25 µM (≈ 13.7 µg/mL); in assay [31] it was 6.25 µM (≈ 13.7 µg/mL).
As to `CSCC[C@H](NC(=O)[C@H](CO)NC(=O)[C@@H](N)CO)C(=O)N[C@@H](CCCCN)C(=O)N[C@@H](CC(C)C)C(=O)N[C@@H](CO)C(=O)N[C@@H](Cc1ccccc1)C(=O)N[C@@H](CCCN=C(N)N)C(=O)N[C@@H](C)C(=O)N[C@@H](CCCN=C(N)N)C(=O)N[C@@H](C)C(=O)N[C@@H](Cc1ccc(O)cc1)C(=O)NCC(=O)N[C@@H](Cc1ccccc1)C(=O)N[C@@H](CCCN=C(N)N)C(=O)NCC(=O)N1CCC[C@H]1C(=O)NCC(=O)N1CCC[C@H]1C(=O)N[C@@H](CCC(N)=O)C(=O)N[C@@H](CC(C)C)C(=O)O` [SSMKLSFRARAYGFRGPGPQL], the MIC in the assay with Aspergillus fumigatus was at least 80 µM; against Escherichia coli D22, at least 150 µM; against Micrococcus luteus A270 it was 15 µM (≈ 34.9 µg/mL); in [32] it was at least 50 µM; in assay [33], 20.6 µM (≈ 48 µg/mL); in assay [34] it was at least 43 µM.

For orientation: MIC means the lowest concentration that inhibits growth of the organism. A higher MIC goes with a need for much substance.
